Each compound was assayed against T1, human histamine H3 receptor (Homo sapiens, UniProt Q9Y5N1) (assay: H3 GTPγS assay (SPA method), histamine H3 in vitro assay). Conditions: GTPγ[35S] binding to membranes of cells expressing human H3; antagonist mode with R-γ-Me-Histamine at EC80 (30 nM); in one embodiment HCl salts tested; read-out: Potency (functional potency as indicated by IC50).
T1 construct: host or cells: cells expressing the human H3 receptor
Format: biochemical

T1 sequence (Q9Y5N1 whole entry): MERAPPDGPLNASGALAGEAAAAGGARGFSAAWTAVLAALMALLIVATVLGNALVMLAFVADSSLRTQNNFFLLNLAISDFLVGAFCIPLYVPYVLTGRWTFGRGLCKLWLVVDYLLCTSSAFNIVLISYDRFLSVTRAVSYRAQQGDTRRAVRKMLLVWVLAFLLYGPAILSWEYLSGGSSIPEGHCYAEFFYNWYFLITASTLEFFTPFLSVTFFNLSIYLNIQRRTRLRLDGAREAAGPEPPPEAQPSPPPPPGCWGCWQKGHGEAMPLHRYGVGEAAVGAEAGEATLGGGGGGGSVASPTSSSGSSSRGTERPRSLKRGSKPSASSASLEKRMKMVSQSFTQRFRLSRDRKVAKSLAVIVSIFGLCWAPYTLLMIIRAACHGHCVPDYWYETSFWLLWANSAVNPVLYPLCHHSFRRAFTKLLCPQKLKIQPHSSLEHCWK

Compound | IC50
c1ccc(N2CCN(c3ccc4c(c3)nc3n4CCN(C4CCC4)CC3)CC2)cc1 [Compound 229, 3-cyclobutyl-8-(4-phenylpiperazin-1-yl)-2,3,4,5-tetrahydro-1H-benzo[4,5]imidazo[1,2-d][1,4]diazepine] | ≤ 10 nM
Fc1ccc2c(c1)CCN(Cc1ccc3c(c1)nc1n3CCN(C3CCC3)CC1)C2 [Compound 164, 3-cyclobutyl-8-((6-fluoro-3,4-dihydroisoquinolin-2(1H)-yl)methyl)-2,3,4,5-tetrahydro-1H-benzo[4,5]imidazo[1,2-d][1,4]diazepine] | ≤ 10 nM
N#Cc1ccc(OCc2ccc3c(c2)nc2n3CCN(C3CCC3)CC2)nc1 [Compound 108, 6-((3-cyclobutyl-2,3,4,5-tetrahydro-1H-[1,4]diazepino[1,7-a]benzimidazol-9-yl)methoxy)nicotino-nitrile] | ≤ 100 nM
CN(Cc1ccc2c(c1)nc1n2CCN(C2CCC2)CC1)C(=O)OCc1ccccc1 [Compound 142, benzyl((3-cyclobutyl-2,3,4,5-tetrahydro-1H-benzo[4,5]imidazo[1,2-d][1,4]diazepin-8-yl)methyl)(methyl)carbamate] | ≤ 100 nM
COc1ccc(-c2ccc3c(c2)nc2n3CCN(C3CCC3)CC2)nn1 [Compound 134, 3-cyclobutyl-8-(6-methoxypyridazin-3-yl)-2,3,4,5-tetrahydro-1H-benzo[4,5]imidazo[1,2-d][1,4]diazepine] | ≤ 100 nM
CN(C)C(=O)c1ccc2nc3n(c2c1)CCN(C1CCC1)CC3 [Compound 85] | ≥ 1000 nM
Fc1ccc(N2CCN(c3ccc4c(c3)nc3n4CCN(C4CCC4)CC3)CC2)cc1 [Compound 231, 3-cyclobutyl-8-(4-(4-fluorophenyl)piperazin-1-yl)-2,3,4,5-tetrahydro-1H-benzo[4,5]imidazo[1,2-d][1,4]diazepine] | ≤ 10 nM
c1cc2c(cc1N1CCN(C3CCOCC3)CC1)nc1n2CCN(C2CCC2)CC1 [Compound 103, 3-cyclobutyl-9-(4-(tetrahydro-2H-pyran-4-yl)piperazin-1-yl)-2,3,4,5-tetrahydro-1H-[1,4]diazepino[1,7-a]benzimidazole] | ≤ 10 nM
O=C(c1ccc2c(c1)nc1n2CCN(C2CCC2)CC1)c1cnccn1 [Compound 121, (3-cyclobutyl-2,3,4,5-tetrahydro-1H-benzo[4,5]imidazo[1,2-d][1,4]diazepin-8-yl)(pyrazin-2-yl)methanone] | ≤ 100 nM
N#Cc1ccc(CNc2ccc3nc4n(c3c2)CCN(C2CCC2)CC4)cc1 [Compound 81] | ≤ 100 nM
CC(=O)Nc1ccc(-c2ccc3c(c2)nc2n3CCN(C3CCC3)CC2)cc1 [Compound 3] | ≤ 10 nM
N#Cc1ccc(C(=O)N2CCN(c3ccc4c(c3)nc3n4CCN(C4CCC4)CC3)CC2)cc1 [Compound 168, 4-(4-(3-cyclobutyl-2,3,4,5-tetrahydro-1H-benzo[4,5]imidazo[1,2-d][1,4]diazepin-8-yl)piperazine-1-carbonyl)benzonitrile] | ≤ 10 nM
CC(=O)Nc1ccc(-c2ccc3c(c2)nc2n3CCN(C3CCN(C)CC3)CC2)cc1 [Compound 9, N-(4-(3-(1-methylpiperidin-4-yl)-2,3,4,5-tetrahydro-1H-[1,4]diazepino[1,7-a]benzimidazol-9-yl)phenyl)acetamide] | ≤ 1000 nM
N#Cc1ccc(-c2ccc3c(c2)nc2n3CCN(CC3CC3)CC2)cc1 [Compound 39] | ≤ 100 nM
N#Cc1ccc(CNc2ccc3c(c2)nc2n3CCN(C3CCC3)CC2)cc1 [Compound 63] | ≤ 100 nM
Cc1nc2ccccc2n1-c1ccc2c(c1)nc1n2CCN(C2CCC2)CC1 [Compound 207, 3-cyclobutyl-8-(2-methyl-1H-benzo[d]imidazol-1-yl)-2,3,4,5-tetrahydro-1H-benzo[4,5]imidazo[1,2-d][1,4]diazepine] | ≤ 10 nM
c1ccc2c(c1)CCN(c1ccc3c(c1)nc1n3CCN(C3CCC3)CC1)C2 [Compound 176, 3-cyclobutyl-8-(3,4-dihydroisoquinolin-2(1H)-yl)-2,3,4,5-tetrahydro-1H-benzo[4,5]imidazo[1,2-d][1,4]diazepine] | ≤ 10 nM
CC(=O)N1CCc2cc3c(cc2C1)nc1n3CCN(C2CCC2)CC1 [Compound 187, 1-(9-cyclobutyl-3,4,8,9,10,11-hexahydro-1H-[1,4]diazepino[7′,1′:2,3]imidazo[4,5-g]isoquinolin-2(7H)-yl)ethanone] | ≤ 10 nM
COc1ccnc(Oc2ccc3nc4n(c3c2)CCN(C2CCC2)CC4)n1 [Compound 78] | ≤ 1000 nM
Cn1ncc2ccc(-c3ccc4c(c3)nc3n4CCN(C4CCC4)CC3)cc21 [Compound 205, 3-cyclobutyl-8-(1-methyl-1H-indazol-6-yl)-2,3,4,5-tetrahydro-1H-benzo[4,5]imidazo[1,2-d][1,4]diazepine] | ≤ 100 nM
N#Cc1ccc(C(=O)N2CCc3cc4c(cc3C2)nc2n4CCN(C3CCC3)CC2)cc1 [Compound 185, 4-(9-cyclobutyl-2,3,4,7,8,9,10,11-octahydro-1H-[1,4]diazepino[7′,1′:2,3]imidazo[4,5-g]isoquinoline-2-carbonyl)benzonitrile] | ≤ 10 nM
O=C(c1ccc2c(c1)nc1n2CCN(C2CCC2)CC1)N1CCOCC1 [Compound 56] | ≤ 100 nM
c1cnc(N2CCCC(c3ccc4c(c3)nc3n4CCN(C4CCC4)CC3)C2)nc1 (stereo not shown) [Compound 130, 3-cyclobutyl-8-(1-(pyrimidin-2-yl)piperidin-3-yl)-2,3,4,5-tetrahydro-1H-benzo[4,5]imidazo[1,2-d][1,4]diazepine] | ≤ 100 nM

Compound | IC50
OC(c1ccc2c(c1)nc1n2CCN(C2CCC2)CC1)c1cnccn1 (stereo not shown) [Compound 120, (3-cyclobutyl-2,3,4,5-tetrahydro-1H-benzo[4,5]imidazo[1,2-d][1,4]diazepin-8-yl)(pyrazin-2-yl)methanol] | ≤ 100 nM
c1cnc(N2Cc3cc4nc5n(c4cc3C2)CCN(C2CCC2)CC5)cn1 [Compound 149, 8-cyclobutyl-2-(pyrazin-2-yl)-1,2,3,6,7,8,9,10-octahydro-[1,4]diazepino[1′,7′:1,2]imidazo[4,5-f]isoindole] | ≥ 1000 nM
CN1CCN(C(=O)c2ccc3c(c2)nc2n3CCN(C3CCC3)CC2)CC1 [Compound 58] | ≤ 1000 nM
c1cc2c(nc3n2CCN(C2CCC2)CC3)c2c1CNCC2 [Compound 184, 10-cyclobutyl-2,3,4,8,9,10,11,12-octahydro-1H-[1,4]diazepino[1′,7′:1,2]imidazo[4,5-f]isoquinoline] | ≤ 1000 nM
O=C(C1CCC1)N1CCc2cc3c(cc2C1)nc1n3CCN(C2CCC2)CC1 [Compound 186, cyclobutyl(9-cyclobutyl-3,4,8,9,10,11-hexahydro-1H-[1,4]diazepino[7′,1′:2,3]imidazo[4,5-g]isoquinolin-2(7H)-yl)methanone] | ≤ 100 nM
c1cc(-c2ccc3c(c2)nc2n3CCN(C3CCC3)CC2)cnn1 [Compound 127, 3-cyclobutyl-8-(pyridazin-4-yl)-2,3,4,5-tetrahydro-1H-benzo[4,5]imidazo[1,2-d][1,4]diazepine] | ≤ 100 nM
c1cnc(Cc2ccc3c(c2)nc2n3CCN(C3CCC3)CC2)cn1 [Compound 122, 3-cyclobutyl-8-(pyrazin-2-ylmethyl)-2,3,4,5-tetrahydro-1H-benzo[4,5]imidazo[1,2-d][1,4]diazepine] | ≤ 100 nM
Brc1ccc2nc3n(c2c1)CCN(C1CCC1)CC3 [Compound 40] | ≤ 100 nM
OCc1ccc2c(c1)nc1n2CCN(C2CCC2)CC1 [Compound 106, 2-(3-cyclobutyl-2,3,4,5-tetrahydro-1H-[1,4]diazepino[1,7-a]benzimidazol-9-yl)methanol] | ≤ 1000 nM
CN(C)Cc1ccc2nc3n(c2c1)CCN(C1CCC1)CC3 [Compound 87] | ≤ 10 nM
c1cc(-c2ccc3c(c2)nc2n3CCN(C3CCC3)CC2)nc(N2CCCC2)c1 [Compound 135, 3-cyclobutyl-8-(6-(pyrrolidin-1-yl)pyridin-2-yl)-2,3,4,5-tetrahydro-1H-benzo[4,5]imidazo[1,2-d][1,4]diazepine] | ≤ 100 nM
c1cnc(-c2ccc3c(c2)nc2n3CCN(C3CCC3)CC2)cn1 [Compound 24] | ≤ 10 nM
N#Cc1ccc(-c2cnc3c(c2)nc2n3CCN(C3CCC3)CC2)cc1 [Compound 237, 4-(7-aza-3-cyclobutyl-2,3,4,5-tetrahydro-1H-[1,4]diazepino[1,7-a]benzimidazol-9-yl)benzonitrile] | ≤ 100 nM
FC1(F)CCN(c2ccc3c(c2)nc2n3CCN(C3CCC3)CC2)C1 [Compound 182, 3-cyclobutyl-8-(3,3-difluoropyrrolidin-1-yl)-2,3,4,5-tetrahydro-1H-benzo[4,5]imidazo[1,2-d][1,4]diazepine] | ≤ 100 nM
c1cc2ccc(-c3ccc4c(c3)nc3n4CCN(C4CCC4)CC3)nc2[nH]1 [Compound 196, 3-cyclobutyl-8-(1H-pyrrolo[2,3-b]pyridin-6-yl)-2,3,4,5-tetrahydro-1H-benzo[4,5]imidazo[1,2-d][1,4]diazepine] | ≤ 100 nM
c1ccc2c(c1)cnn2-c1ccc2c(c1)nc1n2CCN(C2CCC2)CC1 [Compound 69] | ≤ 100 nM
c1c2c(cc3c1nc1n3CCN(C3CCC3)CC1)CNC2 [Compound 145, 8-cyclobutyl-1,2,3,6,7,8,9,10-octahydro-[1,4]diazepino[1′,7′:1,2]imidazo[4,5-f]isoindole] | ≤ 10 nM
Fc1ccc(CNc2ccc3c(c2)nc2n3CCN(C3CCC3)CC2)cc1 [Compound 62] | ≤ 100 nM
N#Cc1ccc(-c2ccc3c(c2)nc2n3CCN(C3CCOCC3)CC2)cc1 [Compound 38] | ≤ 100 nM
CC1CCC(N2CCc3nc4cc(-c5ccc(C#N)cc5)ccc4n3CC2)C1 (racemic) [Compound 34, rac-cis/trans-4-(3-(3-methylcyclopentyl)-2,3,4,5-tetrahydro-1H-[1,4]diazepino[1,7-a]benzimidazol-9-yl)benzonitrile] | ≤ 100 nM
FC1CCN(Cc2ccc3c(c2)nc2n3CCN(C3CCC3)CC2)CC1 [Compound 159, 3-cyclobutyl-8-((4-fluoropiperidin-1-yl)methyl)-2,3,4,5-tetrahydro-1H-benzo[4,5]imidazo[1,2-d][1,4]diazepine] | ≤ 10 nM
CC(C1CCC1)N1CCc2nc3cc(-c4ccc(C#N)cc4)ccc3n2CC1 (stereo not shown) [Compound 6] | ≤ 100 nM
N#Cc1ccc(COc2ccc3c(c2)nc2n3CCN(C3CCC3)CC2)cc1 [Compound 53] | ≤ 10 nM
